SMILES strings stand for the structures.

This note sets out measurements from ChEMBL document CHEMBL1146447, “Evaluation of the antifungal activity of natural xanthones from Garcinia mangostana and their synthetic derivatives” (1997).

Format in all cases: functional
The test system of assay [1] is Alternaria alternata. As to the kind of experiment: Antifungal activity against Alternaria tenuis at 1 ppm after 168 hrs at 24 hrs intervals.
Assay [2] concerns Alternaria alternata. Briefly: Antifungal activity against Alternaria tenuis at 10 ppm after 168 hrs at 24 hrs intervals.
Assay [3] concerns Alternaria alternata. As to the kind of experiment: Antifungal activity against Alternaria tenuis at 100 ppm after 168 hrs at 24 hrs intervals.
Assay [4] deals with Alternaria alternata. As to the kind of experiment: Antifungal activity against Alternaria tenuis at 1000 ppm after 168 hrs at 24 hrs intervals.
Assay [5] has as its system Drechslera. As to the kind of experiment: Antifungal activity against Drechslera oryzae at 1 ppm after 168 hrs at 24 hrs intervals.
The subject of assay [6] is Drechslera. Briefly: Antifungal activity against Drechslera oryzae at 10 ppm after 168 hrs at 24 hrs intervals.
For assay [7], the system named is Drechslera. Briefly: Antifungal activity against Drechslera oryzae at 100 ppm after 168 hrs at 24 hrs intervals.
In assay [8] the test system is Drechslera. As to the kind of experiment: Antifungal activity against Drechslera oryzae at 1000 ppm after 168 hrs at 24 hrs intervals.
The subject of assay [9] is Fusarium oxysporum f. sp. vasinfectum. Briefly: Antifungal activity against Fusarium oxysporum vasinfectum at 1 ppm after 144 hrs at 24 hrs intervals.
Assay [10] has the same test system. Briefly: Antifungal activity against Fusarium oxysporum vasinfectum at 10 ppm after 144 hrs at 24 hrs intervals.
The test system is the same in assay [11]. As to the kind of experiment: Antifungal activity against Fusarium oxysporum vasinfectum at 100 ppm after 144 hrs at 24 hrs intervals.
For assay [12] the test system is unchanged. Briefly: Antifungal activity against Fusarium oxysporum vasinfectum at 1000 ppm after 144 hrs at 24 hrs intervals.

Usually inhibition stands for the relative decrease from the control value, in per cent. With `CC(C)=CCc1c(O)cc2oc3cc(O)c(O)c(CC=C(C)C)c3c(=O)c2c1O`, the inhibition at 1 ppm with Alternaria alternata [1] is 1%; in the assay with Drechslera [5] it was 5%; in [9], 0%. In addition, the inhibition at 10 ppm in the assay with Alternaria alternata [2] is 9%; with Drechslera [6] it was 35%; in assay [10] it was 6%. Besides, the inhibition at 100 ppm came to 33% in the assay with Alternaria alternata [3], 81% in the assay with Drechslera [7] and 50% in [11]. Besides, the values for the inhibition at 1000 ppm (in the assay with Alternaria alternata [4]; in the assay on Drechslera [8]; in assay [12]) were 58%, 85% and 64%, respectively.
On to `COc1cc2oc3cc(OC)c(OC)c(CC=C(C)C)c3c(=O)c2c(O)c1CC=C(C)C`, for which the results for the inhibition at 1 ppm (in the assay with Alternaria alternata [1]; in the assay with Drechslera [5]; in [9]) were 14%, 7% and 5%, respectively. Besides, the values for the inhibition at 10 ppm (with Alternaria alternata [2]; in the assay on Drechslera [6]; in [10]) were 22%, 9% and 12%, respectively. Further, the inhibition at 100 ppm with Alternaria alternata [3] turned out to be 16%; in the assay on Drechslera [7], 27%; in assay [11], 16%. Moreover, the results for the inhibition at 1000 ppm (in the assay on Alternaria alternata [4]; in the assay with Drechslera [8]; in assay [12]) were 16%, 41% and 17%, respectively.
As for `CCCOc1cc2oc3cc(OCCC)c(OC)c(CC=C(C)C)c3c(=O)c2c(O)c1CC=C(C)C`, the inhibition at 1 ppm is -6% in the assay with Alternaria alternata [1], 8% with Drechslera [5] and -4% in assay [9]. Also, the inhibition at 10 ppm in the assay on Alternaria alternata [2] is -3%; in the assay on Drechslera [6] it was -25%; in assay [10] it was 5%. Further, the inhibition at 100 ppm in the assay on Alternaria alternata [3] was -2%; in the assay on Drechslera [7], -36%; in assay [11] it was -6%. The inhibition at 1000 ppm in the assay on Alternaria alternata [4] is 1%; with Drechslera [8], -10%; in assay [12], -2%.
Regarding `CCCCOc1cc2oc3cc(OCCCC)c(OC)c(CC=C(C)C)c3c(=O)c2c(O)c1CC=C(C)C`, the inhibition at 1 ppm is 1% in the assay with Alternaria alternata [1], -38% with Drechslera [5] and -7% in [9]. The inhibition at 10 ppm in the assay on Alternaria alternata [2] is 4%; in the assay with Drechslera [6] it was -38%; in assay [10] it was -4%. The results for the inhibition at 100 ppm (with Alternaria alternata [3]; in the assay on Drechslera [7]; in assay [11]) were -2%, -66% and -4%, respectively. The results for the inhibition at 1000 ppm (in the assay on Alternaria alternata [4]; in the assay with Drechslera [8]; in [12]) were -5%, -69% and -3%, respectively.
`S=c1c2ccccc2oc2ccccc12`: the inhibition at 1 ppm is -6% in the assay with Alternaria alternata [1], 11% with Drechslera [5] and 2% in assay [9]. The inhibition at 10 ppm in the assay on Alternaria alternata [2] was -12%; with Drechslera [6], 5%; in [10] it was 4%. Besides, the inhibition at 100 ppm in the assay on Alternaria alternata [3] is -22%; in the assay on Drechslera [7] it was -11%; in assay [11] it was 4%. Moreover, the inhibition at 1000 ppm in the assay on Alternaria alternata [4] is -32%; in the assay with Drechslera [8], 10%; in assay [12] it was 6%.
Consider `CCOc1cc2oc3cc(OCC)c(OC)c(CC=C(C)C)c3c(=O)c2c(O)c1CC=C(C)C`, for which the results for the inhibition at 1 ppm (with Alternaria alternata [1]; in the assay on Drechslera [5]; in [9]) were -4%, -72% and -3%, respectively. In addition, the inhibition at 10 ppm in the assay on Alternaria alternata [2] was 4%; in the assay on Drechslera [6] it was -34%; in [10], -2%. Moreover, the inhibition at 100 ppm in the assay on Alternaria alternata [3] was -11%; with Drechslera [7], -31%; in assay [11] it was -3%. Also, the inhibition at 1000 ppm with Alternaria alternata [4] was -1%; in the assay on Drechslera [8] it was -57%; in [12] it was -1%.
